Reference: the NIST ThermoML archive (doi:10.1016/j.jct.2012.08.023)

Assay: mn = molality of the nth substance listed, in mol/kg
Conditions: 101.3 kPa, Liquid; for speed of sound: Single path-length method; for mass density: Vibrating tube method

COCCOCCO [2-(2-methoxyethoxy)ethanol] + O
Conditions	mass density, 288.15 K [kg/m3]	mass density, 298.15 K [kg/m3]	mass density, 308.15 K [kg/m3]	speed of sound, 288.15 K [m/s]	speed of sound, 298.15 K [m/s]	speed of sound, 308.15 K [m/s]
m1 = 0.1113	999.888	997.716	994.536	1477.1	1505.1	1526.8
m1 = 0.1346	1000.02	997.84	994.655	1480.4	1508.5	1529.1
m1 = 0.3285	1001.11	998.835	995.615	1494.2	1519.7	1538.8
m1 = 0.4005	1001.49	999.182	995.953	1498.2	1523.4	1541.4
m1 = 0.62	1002.6	1000.22	996.952	1516.3	1537.8	1553.6
m1 = 0.7114	1003.02	1000.62	997.341	1523.8	1544.5	1558.8
m1 = 0.9906	1004.26	1001.81	998.476	1539.6	1556.8	1569.1
m1 = 1.052	1004.52	1002.03	993.955	1548	1497.7	1574.7

COCCO [2-methoxyethan-1-ol] + O
Conditions	mass density, 288.15 K [kg/m3]	mass density, 298.15 K [kg/m3]	mass density, 308.15 K [kg/m3]	speed of sound, 288.15 K [m/s]	speed of sound, 298.15 K [m/s]	speed of sound, 308.15 K [m/s]
m1 = 0.1766	999.359	997.221	994.075	1475.3	1504.9	1526.1
m1 = 0.3377	999.461	997.304	994.169	1487.3	1511.2	1531.6
m1 = 0.3987	999.495	997.331	994.202	1486.9	1513.8	1533.1
m1 = 0.5117	999.548	997.377	994.256	1492.9	1518	1537
m1 = 0.6355	999.593	997.421	994.305	1498.1	1522.9	1540.5
m1 = 0.7947	999.638	997.462	994.361	1506.8	1529.3	1546
m1 = 1.012	999.666	997.507	994.412	1518.1	1539.1	1553.7
